Consider two molecules from BigSolDB 2.1.

As to `C[C@]12CC[C@H](O)CC1=CC[C@@H]1[C@@H]2CC[C@]2(C)C(c3cccnc3)=CC[C@@H]12`, the solubility (mole fraction) – broadly, solubility expressed as the solute's share of all molecules – by setting is: (in THF, 296 K) 0.00249; (in THF, 310 K) 0.00393; (in acetonitrile, 296 K) 4.44e-05; (in acetonitrile, 310 K) 6.46e-05; (in ethanol, 296 K) 0.00102; (in ethanol, 310 K) 0.00126. The solubility (mole fraction) reads like this: (in isopropanol, 296 K) 0.00168; (in isopropanol, 310 K) 0.0015; (in methanol, 296 K) 0.000523; (in methanol, 310 K) 0.000656; (in n-propanol, 296 K) 0.00178; (in n-propanol, 310 K) 0.00256.
`CC(=O)O[C@H]1CC[C@@]2(C)C(=CC[C@@H]3[C@@H]2CC[C@]2(C)C(c4cccnc4)=CC[C@@H]32)C1`: the solubility (mole fraction) is 0.0128 (in acetone, 296 K); 0.0181 (in acetone, 310 K); 0.0021 (in acetonitrile, 296 K); 0.0027 (in acetonitrile, 310 K); 0.0111 (in ethanol, 296 K); 0.0127 (in ethanol, 310 K). The solubility (mole fraction) worked out at 0.0133 (in isopropanol, 296 K); 0.0145 (in isopropanol, 310 K); 0.00544 (in methanol, 296 K); 0.00648 (in methanol, 310 K); 0.0242 (in n-propanol, 296 K); 0.0279 (in n-propanol, 310 K).
